In patent publication US9656963B2 (BRISTOL-MYERS SQUIBB COMPANY, priority 2012, dated 2017):

Biological target: T1, hGPR40 (Homo sapiens, UniProt O14842)
T1 construct: 3x FLAG; expressed in transfected cells
Assay: FDSS-Based Intracellular Calcium Assay
Assay type: cell-based
Settings: cells expressing GPR40, intracellular Ca2+ response
Protocol: FDSS-Based Intracellular Calcium Assay
Cell lines expressing GPR40 are generated using the pDEST 3× flag gene expression system and are cultured in culture medium comprising the following components: F12 (Gibco #11765), 10% lipid deprived fetal bovine serum, 250 μg/ml zeocin and 500 μg/ml G418. To conduct the fluorescent imaging plate reader (FLIPR)-based calcium flux assay to measure intracellular Ca^2+ response, cells expressing GPR40 are plated on 384 well plates (BD Biocoat #356697) at a density of 20,000 cells/20 μL medium per well in phenol red and serum-free DMEM (Gibco #21063-029) and incubated overnight. […] Compounds are dissolved in DMSO and diluted to desired concentrations with assay buffer and added to the cells as 3x solution (20 μL per well). Run fluorescence/luminescence reader FDSS (Hamamatsu) to read intracellular Ca^2+ response.

T1 sequence (O14842 whole entry): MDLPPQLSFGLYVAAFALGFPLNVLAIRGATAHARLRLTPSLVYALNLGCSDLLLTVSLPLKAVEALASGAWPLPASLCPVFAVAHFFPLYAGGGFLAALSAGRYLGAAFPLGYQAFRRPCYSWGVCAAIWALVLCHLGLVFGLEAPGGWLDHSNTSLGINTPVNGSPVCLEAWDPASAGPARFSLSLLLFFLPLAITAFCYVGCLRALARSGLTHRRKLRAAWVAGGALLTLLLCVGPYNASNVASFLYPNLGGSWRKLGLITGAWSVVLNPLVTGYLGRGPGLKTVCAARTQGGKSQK

Compound	EC50 [nM]
Cc1ccccc1Oc1ccc(N2N=C(C(F)(F)F)CC2CC(=O)O)cc1 (single isomer, unassigned) [Example 11, Isomer 1, 2-(1-(4-(o-tolyloxy)phenyl)-3-(trifluoromethyl)-4,5-dihydro-1H-pyrazol-5-yl)acetic acid]	70
COc1ccc(F)c(-c2ccc(Cc3ccc(N4N=C(C(F)(F)F)CC4CC(=O)O)cc3)c(C)c2)c1 (single isomer, unassigned) [Example 17, Isomer 1, 2-(1-(4-((2′-fluoro-5′-methoxy-3-methylbiphenyl-4-yl)methyl)phenyl)-3-(trifluoromethyl)-4,5-dihydro-1H-pyrazol-5-yl)acetic acid]	150
COc1ccc(F)c(-c2ccc(Cc3ccc(N4N=C(C(F)(F)F)CC4(C)CC(=O)O)cc3)c(C)c2)c1 (single isomer, unassigned) [Example 51, Isomer 2, 2-(1-(4-((2′-fluoro-5′-methoxy-3-methylbiphenyl-4-yl)methyl)phenyl)-5-methyl-3-(trifluoromethyl)-4,5-dihydro-1H-pyrazol-5-yl)acetic acid]	1490
Cc1ccccc1Oc1ccc(N2N=C(S(C)(=O)=O)CC2CC(=O)O)cc1 (racemic) [Example 5, 2-(3-(methylsulfonyl)-1-(4-(o-tolyloxy)phenyl)-4,5-dihydro-1H-pyrazol-5-yl)acetic acid]	1650
COc1ccc(F)c(-c2ccc(Cc3ccc(N4N=C(C(F)(F)F)C(CC#N)C4CC(=O)O)cc3)c(C)c2)c1 (single isomer, unassigned) [Example 54, isomer 1, 2-(4-(cyanomethyl)-1-(4-((2′-fluoro-5′-methoxy-3-methyl-[1,1′-biphenyl]-4-yl)methyl)phenyl)-3-(trifluoromethyl)-4,5-dihydro-1H-pyrazol-5-yl)acetic acid, trans-diastereomer]	380
COc1ccc(F)c(-c2ccc(Cc3ccc(N4N=C(c5ccccn5)C(C)C4CC(=O)O)cc3)c(C)c2)c1 (single isomer, unassigned) [example 62, isomer 2, 2-(1-(4-((2′-fluoro-5′-methoxy-3-methylbiphenyl-4-yl)methyl)phenyl)-4-methyl-3-(pyridin-2-yl)-4,5-dihydro-1H-pyrazol-5-yl)acetic acid]	63
COc1ccc(F)c(-c2ccc(Cc3ccc(N4N=C(C(F)(F)F)CC4CC(=O)O)cc3)c(F)c2)c1 (single isomer, unassigned) [Example 19, Isomer 1, 2-(1-(4-((2′,3-difluoro-5′-methoxybiphenyl-4-yl)methyl)phenyl)-3-(trifluoromethyl)-4,5-dihydro-1H-pyrazol-5-yl)acetic acid]	580
COc1ccc(F)c(-c2ccc(Cc3ccc(N4N=C(C#N)C(C)C4CC(=O)O)cc3)c(C)c2)c1 (single isomer, unassigned) [Example 52, Isomer 2, 2-(3-cyano-1-(4-((2′-fluoro-5′-methoxy-3-methylbiphenyl-4-yl)methyl)phenyl)-4-methyl-4,5-dihydro-1H-pyrazol-5-yl)acetic acid]	300
O=C(O)CC1CC(C(F)(F)F)=NN1c1ccc(OCc2ccccc2)cc1 (racemic) [Example 1, 2-(1-(4-(benzyloxy)phenyl)-3-(trifluoromethyl)-4,5-dihydro-1H-pyrazol-5-yl)acetic acid]	1960
C[C@@H]1C(C(F)(F)F)=NN(c2ccc(CCCc3ccccc3)cc2)[C@H]1CC(=O)O [Example 71, 2-((4S,5S)-4-methyl-1-(4-(3-phenylpropyl)phenyl)-3-(trifluoromethyl)-4,5-dihydro-1H-pyrazol-5-yl)acetic acid]	5760
C[C@@H]1C(C(F)(F)F)=NN(c2ccc(CCCc3cccc(F)c3)cc2)[C@H]1CC(=O)O [Example 72, 2-((4S,5S)-1-(4-(3-(3-fluorophenyl)propyl)phenyl)-4-methyl-3-(trifluoromethyl)-4,5-dihydro-1H-pyrazol-5-yl)acetic acid]	7020
Cc1cc(Cc2ccc(N3N=C(C(F)(F)F)CC3CC(=O)O)cc2)ccc1-c1cc(OC(F)(F)F)ccc1Cl (racemic) [Example 25, 2-(1-(4-((2′-chloro-2-methyl-5′-(trifluoromethoxy)biphenyl-4-yl)methyl)phenyl)-3-(trifluoromethyl)-4,5-dihydro-1H-pyrazol-5-yl)acetic acid]	280
COc1cccc(-c2ccc(Cc3ccc(N4N=C(C(F)(F)F)[C@@H](C)[C@@H]4CC(=O)O)cc3)c(C)c2)c1 [Example 73]	37
COc1ccc(F)c(-c2ccc(Cc3ccc(N4N=C(c5ncccn5)C(C)C4CC(=O)O)cc3)c(C)c2)c1 (single isomer, unassigned) [Example 61 isomer 1]	> 16600
COc1cccc(-c2ccc(Cc3ccc(N4N=C(C#N)CC4CC(=O)O)cc3)c(C)c2)c1 (racemic) [Example 38, 2-(3-cyano-1-(4-((3′-methoxy-3-methylbiphenyl-4-yl)methyl)phenyl)-4,5-dihydro-1H-pyrazol-5-yl)acetic acid]	190
COc1ccc(F)c(-c2ccc(Cc3ccc(N4N=C(C(F)(F)F)C(C5CC5)C4CC(=O)O)cc3)c(C)c2)c1 (single isomer, unassigned) [Example 43, Isomer 1, 2-(4-cyclopropyl-1-(4-((2′-fluoro-5′-methoxy-3-methylbiphenyl-4-yl)methyl)phenyl)-3-(trifluoromethyl)-4,5-dihydro-1H-pyrazol-5-yl)acetic acid]	3280
Cc1cc(-c2cc(C#N)ccc2F)ccc1Cc1ccc(N2N=C(C#N)CC2CC(=O)O)cc1 (racemic) [Example 39, 2-(3-cyano-1-(4-((5′-cyano-2′-fluoro-3-methylbiphenyl-4-yl)methyl)phenyl)-4,5-dihydro-1H-pyrazol-5-yl)acetic acid]	200
COc1ccc(F)c(-c2ccc(Cc3ccc(N4N=C(C(F)(F)F)CC4CC(=O)O)cc3)c(Cl)c2)c1 (single isomer, unassigned) [Example 20, Isomer 1, 2-(1-(4-((3-chloro-2′-fluoro-5′-methoxybiphenyl-4-yl)methyl)phenyl)-3-(trifluoromethyl)-4,5-dihydro-1H-pyrazol-5-yl)acetic acid]	470
COc1ccc(F)c(-c2ccc(Cc3ccc(N4N=C(c5cc(C)on5)[C@@H](C)[C@@H]4CC(=O)O)cc3)c(C)c2)c1 (single isomer, unassigned) [Example 69, isomer 1]	57
COc1cc(-c2ccc(Cc3ccc(N4N=C(C(F)(F)F)CC4CC(=O)O)cc3)c(C)c2)c(F)cn1 (single isomer, unassigned) [Example 27, Isomer 2, 2-(1-(4-(4-(5-fluoro-2-methoxypyridin-4-yl)-2-methylbenzyl)phenyl)-3-(trifluoromethyl)-4,5-dihydro-1H-pyrazol-5-yl)acetic acid]	150
COc1ccc(F)c(-c2ccc(Cc3ccc(N4N=C(c5ccn(C)n5)C(C)C4CC(=O)O)cc3)c(C)c2)c1 (single isomer, unassigned) [Example 55, Isomer 2, 2-((1-(4-((2′-fluoro-5′-methoxy-3-methyl-[1,1′-biphenyl]-4-yl)methyl)phenyl)-1′,4-dimethyl-4,5-dihydro-1H,1′H-[3,3′-bipyrazol]-5-yl)acetic acid, trans-diastereomer]	230
COc1cccc(-c2ccc(Cc3ccc(N4N=C(C(F)(F)F)CC4CC(=O)O)cc3)c(C)c2)c1 (single isomer, unassigned) [Example 26, Isomer 1, 2-(1-(4-((3′-methoxy-3-methylbiphenyl-4-yl)methyl)phenyl)-3-(trifluoromethyl)-4,5-dihydro-1H-pyrazol-5-yl)acetic acid]	330
COc1ccc(F)c(-c2ccc(Cc3ccc(N4N=C(C(F)(F)F)CC4(C)CC(=O)O)cc3)c(C)c2)c1 (single isomer, unassigned) [Example 51, Isomer 1, 2-(1-(4-((2′-fluoro-5′-methoxy-3-methylbiphenyl-4-yl)methyl)phenyl)-5-methyl-3-(trifluoromethyl)-4,5-dihydro-1H-pyrazol-5-yl)acetic acid]	1550
COc1ccc(OC)c(-c2ccc(Cc3ccc(N4N=C(C#N)CC4CC(=O)O)cc3)c(C)c2)c1 (single isomer, unassigned) [Example 49, Isomer 1, 2-(3-cyano-1-(4-((2′,5′-dimethoxy-3-methylbiphenyl-4-yl)methyl)phenyl)-4,5-dihydro-1H-pyrazol-5-yl)acetic acid]	225
COc1ncccc1-c1ccc(Cc2ccc(N3N=C(C(F)(F)F)[C@@H](C)[C@@H]3CC(=O)O)cc2)c(C)c1 [Example 77, 2-((4S,5S)-1-(4-(4-(2-methoxypyridin-3-yl)-2-methylbenzyl)phenyl)-4-methyl-3-(trifluoromethyl)-4,5-dihydro-1H-pyrazol-5-yl)acetic acid]	5370
N#CC1=NN(c2ccc(Oc3ccccc3Br)cc2)C(CC(=O)O)C1 (racemic) [Example 30, 2-(1-(4-(2-bromophenoxy)phenyl)-3-cyano-4,5-dihydro-1H-pyrazol-5-yl)acetic acid]	180
CCOc1ccc(F)c(-c2ccc(Cc3ccc(N4N=C(C(F)(F)F)[C@@H](C)[C@@H]4CC(=O)O)cc3)c(C)c2)c1 [Example 70, 2-((4S,5S)-1-(4-((5′-ethoxy-2′-fluoro-3-methyl-[1,1′-biphenyl]-4-yl)methyl)phenyl)-4-methyl-3-(trifluoromethyl)-4,5-dihydro-1H-pyrazol-5-yl)acetic acid]	120
COc1ccc(F)c(-c2ccc(Cc3ccc(N4N=C(C(F)(F)F)CC4CC(=O)O)cc3)c(F)c2)c1 (single isomer, unassigned) [Example 19, Isomer 2, 2-(1-(4-((2′,3-difluoro-5′-methoxybiphenyl-4-yl)methyl)phenyl)-3-(trifluoromethyl)-4,5-dihydro-1H-pyrazol-5-yl)acetic acid]	90
